Active and inactive are the calls of the source.

The EC50 is the concentration at which the effect is half-maximal. One may read the AC50 as the concentration giving half of the maximal activity seen.

Data set [1] in a line: inhibitors of intracellular T. cruzi replication, confirmation, NIH3T3 host cells, beta-gal luminescence (AID 2044).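 Further: intracellular parasites grown in NIH/3T3 mouse fibroblasts as host cells; luminescent beta-galactosidase reporter signal from transgenic T. cruzi replicating inside host cells; inhibitors lower the luminescence signal.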 It is filed as functional, cell-based.
Data set [2] can be described thus: cytotoxicity toward NIH3T3 fibroblasts, dose response, counter-screen, cell-based, ATP luminescence, mouse fibroblasts (AID 2010).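 Further: cells exposed to compound for about 90 hours before reading.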 It is filed as functional. For orientation: Counterscreens check selectivity or assay interference.
For data set [3], the target named is Cytochrome P450 2C19 (Homo sapiens, UniProt P33261). In words: Cytochrome panel assay with activity outcomes. Panel member name: p450-cyp2c19 Compounds with AC50 equal or less than 10 uM are considered active. Format: functional.
Cytochrome P450 2C19, sequence (P33261 whole entry): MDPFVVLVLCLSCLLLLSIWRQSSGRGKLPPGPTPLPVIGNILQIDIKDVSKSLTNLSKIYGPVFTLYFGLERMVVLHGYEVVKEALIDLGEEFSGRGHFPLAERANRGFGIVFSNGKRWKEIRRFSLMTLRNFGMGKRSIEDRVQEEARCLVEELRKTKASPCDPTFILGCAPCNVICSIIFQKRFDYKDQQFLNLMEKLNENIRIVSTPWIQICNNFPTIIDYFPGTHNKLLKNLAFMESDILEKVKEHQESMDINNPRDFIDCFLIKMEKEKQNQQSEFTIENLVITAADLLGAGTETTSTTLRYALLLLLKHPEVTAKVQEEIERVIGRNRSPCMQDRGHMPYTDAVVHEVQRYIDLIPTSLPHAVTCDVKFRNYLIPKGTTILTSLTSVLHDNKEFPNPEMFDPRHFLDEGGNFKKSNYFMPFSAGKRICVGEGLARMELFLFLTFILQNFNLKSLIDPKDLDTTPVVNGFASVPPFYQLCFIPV

On to `CC1CCC2CCCCC2N1C(=O)c1cc([N+](=O)[O-])cc([N+](=O)[O-])c1` (stereo not drawn), for which the EC50 in data set [1] is 0.212 µM (active); in data set [2], > 60 µM (not active).
`CCN(Cc1ccncc1)C(=O)c1cc(COc2c(C)cccc2C)on1`: the concentration giving a half-maximal response (EC50) in data set [1] is 1.42 µM (active); in data set [2], > 60 µM (not active).
In the case of `C[C@H](CCC(=O)O)[C@H]1CC[C@]2(C)[C@@H]3C(=O)C[C@H]4C(C)(C)[C@@H](O)CC[C@]4(C)[C@H]3C(=O)C[C@@]12C`, the AC50 entry in data set [3] is reported as “inconclusive”.
Take `Cc1ccc(C(=O)Nc2c(C#N)c(C)c(C)n2Cc2ccccc2)cc1`: the AC50 in data set [3] (read-out: AC50) is 0.447 µM (inconclusive).
As for `CCOc1ccccc1N(C)C(=O)c1cc2c(=O)n(CC)c3ccccc3c2s1`, the figures for the half-maximal effective concentration (EC50) in data set [1] and in data set [2] were 1.43 µM (active) and > 60 µM (not active), respectively.
For the compound `Cc1ccccc1C1c2[nH]c3ccccc3c2C[C@H]2C(=O)N(C3CCN(Cc4ccccc4)CC3)CC(=O)N12` (stereo partly drawn), the EC50 in data set [1] is 1.98 µM (active); in data set [2] it was 13.3 µM (active).
In the case of `C1CCC(CNc2c3c(nc4nnnn24)CCCC3)CC1`, the figures for the EC50 in data set [1] and in data set [2] were 1.87 µM (active) and > 60 µM (not active), respectively.
In the case of `CCC(=O)Nc1ccc2nc(C3CC3)n(Cc3ccc(C(C)(C)C)cc3)c(=O)c2c1`, the EC50 in data set [1] is 0.325 µM (active); in data set [2], > 60 µM (not active).
The matching figures for `CCn1cc(CN2CCCC(C(=O)c3cccc(OC)c3)C2)c(C)n1` (stereo not drawn): 0.426 µM (active) and > 60 µM (inconclusive).
In the case of `O=C(NC1CCN(Cc2ccccc2)CC1)C1CCN(S(=O)(=O)c2ccccc2)CC1`, the EC50 in data set [1] is 0.424 µM (active); in data set [2], > 60 µM (not active).
The matching figures for `O=C(NCCCN1CCOCC1)c1ccc(Sc2ccc(F)cc2)c([N+](=O)[O-])c1`: 1.01 µM (active) and > 60 µM (inconclusive).
As to `Cc1[nH]c2ccccc2c1SCc1nnc(SCc2ccc(Cl)cc2)n1C`, the concentration for a half-maximal effect (EC50) in data set [1] is 3.54 µM (active); in data set [2], 12.3 µM (active).
For the compound `COc1cc(CN2CCCC(CO)(Cc3cccc(Cl)c3)C2)cc2c1OCO2` (stereo not drawn), the 50% effective concentration (EC50) was 0.419 µM (active) in data set [1] and > 60 µM (not active) in data set [2].
Turning to `Cc1c(NC(=O)c2ccc(-c3ccc([N+](=O)[O-])cc3Cl)o2)c(=O)n(-c2ccccc2)n1C`, the EC50 in data set [1] was 0.839 µM (active); in data set [2] it was > 60 µM (inconclusive).
As to `Cc1cc(C)c2c(N)c(C(=O)c3ccccc3)sc2n1`, the figures for the concentration for a half-maximal effect (EC50) in data set [1] and in data set [2] were 0.225 µM (active) and > 60 µM (not active), respectively.
Turning to `O=C(Nc1cccc(F)c1)N1CC=C(c2ccc(Cl)cc2)CC1`, the EC50 is 1.48 µM (active) in data set [1] and > 60 µM (not active) in data set [2].
`CC1=NN(c2ccccc2)C(=O)C1C(=O)c1ccc(Cl)cc1` (stereo not drawn): the AC50 in data set [3] (read-out: AC50) was 39.8 µM (inconclusive).
For `O=C(O)C1C2C=CC3(CN(Cc4ccccn4)C(=O)C13)O2` (stereo not drawn), in data set [3], the AC50 entry is reported as “inconclusive”.
The same measure, in the same setting: next, `C[C@@]12CC[C@H](O)C[C@@H]1CC[C@@H]1[C@@H]2CC[C@@]2(C)[C@@H](C3=CC(=O)OC3)[C@H](O)C[C@]12O`: “inconclusive”.
With `CC(=O)Nc1sc2c(c1C(N)=O)CCCC2`, in data set [3] (read-out: AC50), the half-maximal activity concentration (AC50) was 35.5 µM (inconclusive).
In the case of `COc1cccc(/C=N/N2CCN(c3ccncc3S(=O)(=O)N3CCCCC3)CC2)c1`, the EC50 in data set [1] was 1.71 µM (active); in data set [2] it was > 60 µM (not active).
The matching figures for `CCOc1ccccc1/C=N\Nc1cnn(Cc2ccccc2)c(=O)c1Cl`: 3.38 µM (active) and > 60 µM (inconclusive).
